Source: US6472425B1, “Methods for treating female sexual dysfunctions” (NitroMed, Inc., priority 1997, dated 2002)

System: Human corpus cavernosum tissue
Assay: In vitro comparative relaxation responses, isometric tension of phenylephrine-contracted tissue strips in organ chambers
Format: cell-based
Settings: doses of 10 μM and 30 μM, compared with an equimolar dose of dipyridamole; tissue contracted with phenylephrine 7×10^−7 M; −100% = tone after papaverine 10^−4 M; FIG. 40
Description: In Vitro Comparative Relaxation Responses
Human corpus cavernosum tissue biopsies were obtained at the time of penile prosthesis implantation from impotent men. The tissue was maintained in a chilled Krebs-bicarbonate solution prior to assay. The tissue was cut into strips of 0.3×0.3×1 cm and suspended in organ chambers for isometric tension measurement. Tissues were incrementally stretched until optimal isometric tension for contraction was obtained. Once this was achieved, the tissues were contracted with phenylephine (7×10^−7 M) and once a stable contraction was achieved, the tissues were exposed to either dipyridamole or Example 1 (10^−6 to 3×10^−5 M) by cumulative additions to the chamber. At the end of the experiment papaverine (10^−4 M) is added to obtain maximal relaxation. […] Data are expressed as the percent loss in tone from the phenylephrine-induced contraction (0%=phenylephrine contraction; −100% tone after the administration of papaverine).

CC(C)(CC(=O)OCCN(CCOC(=O)CC(C)(C)SN=O)c1nc(N2CCCCC2)c2nc(N(CCOC(=O)CC(C)(C)SN=O)CCOC(=O)CC(C)(C)SN=O)nc(N3CCCCC3)c2n1)SN=O [Example 1, 2,6-bis(diethyl(3-methyl-3(nitrosothiol)butyric acid ester)amino)-4,8-dipiperidinopyrimido-[5,4d]-pyrimidine]
relaxing the phenylephrine-induced contraction (percent loss in tone from the phenylephrine-induced contraction): more efficacious
